Measured values from US20250042898A1, “Pharmaceutical Compounds And Compositions As c-Kit Kinase Inhibitors” (Enanta Pharmaceuticals, Inc., priority 2023, published 2025).

Legend:
[1] = biological target: Recombinant human c-KIT kinase (Homo sapiens (Human), UniProt P10721); experiment: c-KIT Kinase Chemiluminescence Assay (ADP-Glo); format: biochemical; conditions: recombinant human c-KIT 25 ng, ATP 50 μM, polyEY substrate, ADP-Glo luminescence
From the text: Staurosporine (AM-2282) and Imatinib (STI571) were purchased from Selleck Chemicals LLC (Houston, TX). The c-KIT reference compound THB001 (EP-053504) was synthesized by Enanta Pharmaceuticals, Inc. (Watertown, MA). The c-KIT Kinase Enzyme System (V4498) and ADP-Glo™ Kinase Assay kit (V6930) were purchased from Promega (Madison, WI). DMSO (D2650) was purchased from Sigma-Aldrich (Burlington, MA). ECHO-650 acoustic liquid handling system (67/492,212) and 384-well LDV ECHO source plates (LP-0200) were purchased from Labcyte, Inc (San Jose, CA). Envision Multimode Plate Reader (2104/464466) and ProxiPlate-384 Plus White 384-shallow well microplates (6008280) were purchased from PerkinElmer (Waltham, MA).
c-KIT Kinase Chemiluminescence Assay:
IC50 determination. Test compounds were dispersed into a 384-well low volume while ProxiPlate microplate from a DMSO solution using an ECHO 650 acoustic dispenser to generate a 11-point, 3.162-fold dilution, concentration curve starting at 10 μM in duplicate. Kinase Reaction: The kinase assay was based on the recommended protocol by c-KIT Kinase Enzyme System from Promega. Recombinant human c-KIT kinase in 3 μL of assay buffer (40 mM Tris pH 7.5, 20 mM MgCl2, 0.1 mg/mL BSA and 50 μM DTT) was added to the test or high control wells and 3 μL of assay buffer was added to the low control wells. The microplate was centrifuged at 800 rotations per minute (rpm) for 60 s and incubated at room temperature (RT) for 30 min. Next, 2 μL of buffered ATP and polyEY substrate solution was added to all wells. The microplate was centrifuged at 800 rpm for 60 s and incubated at RT for 2 h. The final assay contained c-KIT (25 ng), ATP (50 μM), polyEY substrate (0.2 μg/μL), test compounds (0-10 μM) and DMSO (1.7%) in 5 μL assay buffer. ADP detection with ADP-Glo™ Kinase Assay: After the kinase reaction incubation, 5 μL of ADP-Glo™ reagent was added to all wells. The microplate was centrifuged at 800 rpm for 60 s and incubated at RT for 40 min. Ten microliter (10 μL) of Kinase Detection Reagent (Luciferin-Luciferase system) was then added to all wells. The microplate was centrifuged at 800 rpm for 60 s and incubated at RT for 60 min. Kinase activity was measured as increase in luminescence at RT in an Envision plate reader equipped with 560 nm filters and operating in endpoint mode.
Data Analysis: Endpoint chemiluminescence from high and low control wells were used to calculate normalized c-KIT activity at various concentrations of test compounds. The normalized activities were fitted to inhibitor-versus-normalized response fit in GraphPad Prism 7 to determine half-maximal inhibitory concentration (IC50) and hill coefficient values (H).
c-KIT activity (%)=100/(1+I^H/IC50^H).
Where I is the inhibitor concentration and H is the Hill coefficient.
IC50 ranges are reported as follows: A<100 nM; B 0.1-1 μM; C>1 μM.

M-07e cells = experiment: M-07e Cellular Assay (SCF-mediated cell proliferation, CellTiter Glo); format: cell-based; conditions: Homo sapiens, SCF at EC90, 72 hours incubation, CellTiter Glo cell viability, read-out: M-7e EC50
Procedure: M-07e cells (Creative Bioarray, CSC-C0249) which endogenously express human c-KIT were used to evaluate the effect of compounds on stem cell factor (SCF)-mediated cell proliferation. M-07e cells were cultured in growth media (RPMI+10% FBS+1% penicillin/streptomycin+10 ng/mL GM-CSF) at 5E5-1.5E6 cells/mL, replenishing media every 3-4 days. 1.5E4 cells were seeded per well in 384 well tissue culture treated plates in […] assay media (RPMI+10% FBS+1% penicillin/streptomycin) without growth factor stimulation and incubated at 37° C. in a CO2 humidity-controlled incubator. Twenty-four hours later, three-fold serially diluted test compounds in media containing SCF (at the previously determined EC90) were added to the plated M-07e cells and incubated for an additional 72 hours. Cell viability was determined by adding 25 μL CellTiter Glo (Promega) to the cells and the luminescence was measured using a Perkin Elmer Envision plate reader. The EC50 was determined using GraphPad Prism. Percent cell growth was determined after normalizing the curve to the mean RLU high control (no compound control wells) at 100% and the mean RLU low control (no SCF control wells) at 0%. EC50 curves were generated using a variable slope four-parameter logistic model with equation […]. ECso ranges are reported as follows: A<100 nM; B 0.1-1 μM; C>1 μM.

Recombinant human c-KIT kinase, sequence (P10721 26-976): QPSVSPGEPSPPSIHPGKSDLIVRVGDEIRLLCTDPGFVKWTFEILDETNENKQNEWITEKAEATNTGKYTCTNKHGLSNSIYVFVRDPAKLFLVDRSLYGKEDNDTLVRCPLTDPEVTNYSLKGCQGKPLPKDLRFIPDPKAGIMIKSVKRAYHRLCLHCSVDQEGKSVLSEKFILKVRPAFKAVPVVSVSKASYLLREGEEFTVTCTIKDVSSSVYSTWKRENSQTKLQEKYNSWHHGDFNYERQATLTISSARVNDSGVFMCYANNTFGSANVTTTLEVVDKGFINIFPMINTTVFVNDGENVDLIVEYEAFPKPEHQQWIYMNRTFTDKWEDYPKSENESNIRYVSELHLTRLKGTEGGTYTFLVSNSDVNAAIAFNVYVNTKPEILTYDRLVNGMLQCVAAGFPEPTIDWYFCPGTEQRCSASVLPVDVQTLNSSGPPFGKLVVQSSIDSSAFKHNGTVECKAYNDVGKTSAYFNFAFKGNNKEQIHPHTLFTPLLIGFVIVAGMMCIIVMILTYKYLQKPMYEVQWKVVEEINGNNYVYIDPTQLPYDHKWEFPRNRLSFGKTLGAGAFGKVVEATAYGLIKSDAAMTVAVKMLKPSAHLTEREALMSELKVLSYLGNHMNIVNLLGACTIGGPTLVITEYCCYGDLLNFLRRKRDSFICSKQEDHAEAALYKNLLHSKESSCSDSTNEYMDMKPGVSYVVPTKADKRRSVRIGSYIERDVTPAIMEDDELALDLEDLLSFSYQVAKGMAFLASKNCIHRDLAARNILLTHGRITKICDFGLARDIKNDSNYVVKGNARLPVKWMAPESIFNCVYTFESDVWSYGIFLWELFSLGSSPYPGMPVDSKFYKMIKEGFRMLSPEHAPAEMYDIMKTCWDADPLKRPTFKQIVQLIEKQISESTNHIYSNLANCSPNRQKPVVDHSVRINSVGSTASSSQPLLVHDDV

SMILES | IC50 [1] | EC50 (M-07e cells)
Cc1sc(-c2noc([C@H]3C[C@@H]3F)n2)cc1NC(=O)c1cnc2ccccn12 [Example 3] | 0.1 to 1 µM | 0.1 to 1 µM
Cc1ncc(-c2noc([C@H]3C[C@@H]3F)n2)cc1NC(=O)c1cnc2ccc(N3CC4(C3)CC(O)(C(F)F)C4)cn12 [Example 15] | 0.1 to 1 µM | –
Cc1ncc(-c2noc([C@H]3C[C@@H]3F)n2)cc1NC(=O)c1cnc2cc(N3CC4(C3)CC(O)(C(F)F)C4)ccn12 [Example 17] | 0.1 to 1 µM | –
Cc1ncc(-c2ncc(OC(F)(F)F)cn2)cc1NC(=O)c1cnc2ccc(N3CC4(C3)CC(O)(C(F)F)C4)cn12 [Example 14] | > 1 µM | –
Cc1ncc(-c2nnn(C3CC(F)(F)C3)n2)cc1NC(=O)c1cnc2ccc(N3CC4(C3)CC(O)(C(F)F)C4)cn12 [Example 16] | 0.1 to 1 µM | –
Cc1sc(-c2noc(C3CC(F)(F)C3)n2)cc1NC(=O)c1cnc2ccccn12 [Example 4] | 0.1 to 1 µM | 0.1 to 1 µM
O=C(Nc1cc(-c2noc([C@H]3C[C@@H]3F)n2)ccn1)c1cnc2ccccn12 [Example 1] | > 1 µM | > 1 µM
O=C(Nc1cc(-c2noc(C3CC(F)(F)C3)n2)ccn1)c1cnc2ccccn12 [Example 2] | > 1 µM | > 1 µM
